# Test results from patent US9533977B2, “Oxazolidinone derivative as CETP inhibitor, its preparation method, and pharmaceutical composition comprising the same” (DONG-A ST CO., LTD., priority 2013, dated 2017).
# Target: T1, CETP (Homo sapiens, UniProt P11597)
# T1 construct: from tissue; host or cells: human plasma from healthy men
# T1 sequence (P11597 18-493): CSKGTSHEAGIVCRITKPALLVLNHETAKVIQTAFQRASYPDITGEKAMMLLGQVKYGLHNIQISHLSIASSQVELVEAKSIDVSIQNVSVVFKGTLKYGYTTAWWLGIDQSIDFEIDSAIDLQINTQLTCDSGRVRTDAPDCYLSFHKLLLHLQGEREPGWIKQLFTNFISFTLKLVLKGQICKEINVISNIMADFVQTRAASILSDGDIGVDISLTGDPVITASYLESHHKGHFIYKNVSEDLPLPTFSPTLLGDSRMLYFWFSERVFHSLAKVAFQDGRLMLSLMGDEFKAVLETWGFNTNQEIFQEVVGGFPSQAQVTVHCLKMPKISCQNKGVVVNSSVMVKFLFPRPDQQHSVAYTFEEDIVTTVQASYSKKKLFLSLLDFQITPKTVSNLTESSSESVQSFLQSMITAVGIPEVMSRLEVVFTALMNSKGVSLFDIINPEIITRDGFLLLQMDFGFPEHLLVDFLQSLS
# Experiment: Inhibitory activity against CETP in human plasma (Roar CETP activity kit, fluorescence)
# Type: biochemical
# Settings: plasma from healthy men diluted 1:10 in assay buffer, 37° C., 3 hrs, fluorescence 465/535 nm; read-out: IC50, Inhibition of CETP Activity in Human Plasma
# Method: A CETP activity kit (#RB-CETP) was purchased from Roar […], Inc. A donor and an acceptor (each, 4 ul), a 10× assay buffer (177 ul), and each of dilutions of test compounds in dimethylsulfoxide (DMSO, Sigma-Aldrich) (0.01 nM˜10000 nM) were added to each well of black round-bottom 96-well plates (Corning #3792). Plasma samples from healthy men were diluted in the assay buffer (1:10=plasma:assay buffer), and added to each well. The plates were sealed with a sealing film (Sigma-Aldrich, #Z369659), and incubated in a 37° C. incubator microplate shaker (#SLST-3, Seolin Bio) for 3 hrs. After removal of the sealing film, fluorescence was read on Spectra Max Gemini EM (Molecular devices) with an excitation wavelength of 465 nm and an emission wavelength of 535 nm. Measurements were calculated according to the following formula. Calculated value=(Fluorescence Intensity with both compound and plasma−Fluorescence Intensity with compound but without plasma)/(Fluorescence Intensity with plasma but without compound−Fluorescence Intensity with neither compound nor plasma)
# From the calculated value, a sigmoidal curve (y=start+(end-start)x^n/k^n+x^n) was drawn using Origin Software (OriginLab Corporation, ver. 8.0724) to obtain IC50 values.
row,Compound,IC50 [nM]
1,CCCN1CCC(N(CC)c2ncc(C(F)(F)F)cc2CN2C(=O)O[C@H](c3cc(C(F)(F)F)cc(C(F)(F)F)c3)[C@@H]2C)CC1 [Example 31],108
2,"CCN(c1ncc(C(F)(F)F)cc1CN1C(=O)O[C@H](c2cc(C(F)(F)F)cc(C(F)(F)F)c2)[C@@H]1C)C1CCN(CC(=O)O)CC1 [Example 39, 2-(4-{[3-({(4S,5R)-5-[3,5-bis(trifluoromethyl)phenyl]-4-methyl-2-oxo-oxazolidin-3-yl}methyl)-5-(trifluoromethyl)pyridin-2-yl](ethyl)amino}piperidin-1-yl)acetic acid]",492
3,"CCN(c1ncc(-c2c[nH]nc2C(F)(F)F)cc1CN1C(=O)O[C@H](c2cc(C(F)(F)F)cc(C(F)(F)F)c2)[C@@H]1C)C1CCCCC1 [Example 72, (4S,5R)-5-[3,5-bis(trifluoromethyl)phenyl]-4-methyl-3-({[2-(ethyl)(cyclohexyl)amino]-5-(3-(trifluoromethyl)-1H-pyrazol-4-yl)pyridin-3-yl}methyl)-oxazolidin-2-one]",169
4,"CCN(c1ncc(F)cc1CN1C(=O)O[C@H](c2cc(C(F)(F)F)cc(C(F)(F)F)c2)[C@@H]1C)C1CCOCC1 [Example 16, (4S,5R)-5-[3,5-Bis(trifluoromethyl)phenyl]-4-methyl-3-({2-[ethyl(tetrahydro-2H-pyran-4-yl)amino]-5-fluoropyridin-3-yl}methyl)-oxazolidin-2-one]",75
5,"CCN(c1ncc(C(F)(F)F)cc1CN1C(=O)O[C@H](c2cc(C(F)(F)F)cc(C(F)(F)F)c2)[C@@H]1C)C1CCN(S(C)(=O)=O)CC1 [Example 32, (4S,5R)-5-[3,5-bis(trifluoromethyl)phenyl]-4-methyl-3-({[2-(ethyl)(1-methanesulfonylpiperidin-4-yl)amino]-5-trifluoromethylpyridin-3-yl}methyl)-oxazolidin-2-one]",410
6,"CCN(c1ncc(C(F)(F)F)cc1CN1C(=O)O[C@H](c2cc(C(F)(F)F)cc(C(F)(F)F)c2)[C@@H]1C)C1CCC(CC(=O)OC)CC1 (stereo partly drawn) [Example 24, methyl 2-(4-{[3-({(4S,5R)-5-[3,5-bis(trifluoromethyl)phenyl]-4-methyl-2-oxo-oxazolidin-3-yl}methyl)-5-(trifluoromethyl)pyridin-2-yl](ethyl)amino}cyclohexyl)acetate]",185
7,C[C@H]1[C@@H](c2cc(C(F)(F)F)cc(C(F)(F)F)c2)OC(=O)N1Cc1cc(C(F)(F)F)cnc1N(C1CCOCC1)C1CC1 [Example 10],60
8,"C[C@H]1[C@@H](c2cc(C(F)(F)F)cc(C(F)(F)F)c2)OC(=O)N1Cc1cc(C(F)(F)F)cnc1N(C1CCC1)C1CCOCC1 [Example 11, (4S,5R)-5-[3,5-bis(trifluoromethyl)phenyl]-4-methyl-3-({[2-(cyclobutyl)(tetrahydro-2H-pyran-4-yl)amino]-5-(trifluoro)methylpyridin-3-yl}methyl)-oxazolidin-2-one]",317
9,"CCN(c1ncc(C(F)(F)F)cc1CN1C(=O)O[C@H](c2cc(C(F)(F)F)cc(C(F)(F)F)c2)[C@@H]1C)C1CCN(C(=O)N(C)C)CC1 [Example 37, methyl 4-{[3-({(4S,5R)-5-[3,5-bis(trifluoromethyl)phenyl]-4-methyl-2-oxo-oxazolidin-3-yl}methyl)-5-(trifluoromethyl)pyridin-2-yl](ethyl)amino}-N,N-dimethylpiperidine-1-carboxamide]",498
10,"C[C@H]1[C@@H](c2cc(C(F)(F)F)cc(C(F)(F)F)c2)OC(=O)N1Cc1cc(C(F)(F)F)cnc1N(C)C1CCOC1 (stereo partly drawn) [Example 1, (4S,5R)-5-[3,5-bis(trifluoromethyl)phenyl]-4-methyl-3-[(2-(methyl(tetrahydrofuran-3-yl)amino)-5-(trifluoromethyl)pyridin-3-yl)methyl]-oxazolidin-2-one]",112

# More lines, in order of falling IC50, values ahead:
row,IC50 [nM],Compound
1,59,"C[C@H]1[C@@H](c2cc(C(F)(F)F)cc(C(F)(F)F)c2)OC(=O)N1Cc1cc(C(F)(F)F)cnc1N(C)C1CCCOCC1 (stereo partly drawn) [Example 20, (4S,5R)-5-[3,5-bis(trifluoromethyl)phenyl]-4-methyl-3-({[2-(methyl)(oxepen-4-yl)amino]-5-(trifluoromethyl)pyridin-3-yl}methyl)-oxazolidin-2-one]"
2,57,"CCN(c1ncc(N2CCCCC2)cc1CN1C(=O)O[C@H](c2cc(C(F)(F)F)cc(C(F)(F)F)c2)[C@@H]1C)C1CCOCC1 [Example 44, (4S,5R)-5-[3,5-bis(trifluoromethyl)phenyl]-4-methyl-3-({[2-(ethyl)(tetrahydro-2H-pyran-4-yl)amino]-5-(piperidin-1-yl)pyridin-3-yl}methyl)-oxazolidin-2-one]"
3,44.4,"CCNC1CCC(N(CC)c2ncc(C(F)(F)F)cc2CN2C(=O)O[C@H](c3cc(C(F)(F)F)cc(C(F)(F)F)c3)[C@@H]2C)CC1 (stereo partly drawn) [Example 23, (4S,5R)-5-[3,5-bis(trifluoromethyl)phenyl]-4-methyl-3-({[2-(ethyl)(4-ethylaminocyclohexyl)amino]-5-(trifluoromethyl)pyridin-3-yl}methyl)-oxazolidin-2-one]"
4,43,C[C@H]1C(c2cc(C(F)(F)F)cc(C(F)(F)F)c2)OC(=O)N1Cc1nc(N2CCCC2)cnc1N(C)C[C@H]1CC[C@H](CC(=O)O)CC1 (some centres unmarked) [Example 127]
5,30.3,"CCN(CC1CCC(CC(=O)O)CC1)c1ncc(-c2ccnn2C)nc1CN1C(=O)OC(c2cc(C(F)(F)F)cc(C(F)(F)F)c2)C1C [Example 106, trans-4-({[3-({(4S,5S)-5-[3,5-bis(trifluoromethyl)phenyl]-4-methyl-2-oxazolidin-3-yl}methyl)-5-(1-methyl-1H-pyrazol-5-yl)pyrazin-2-yl]{[N-(ethyl)aminomethyl]cyclohexyl)}acetic acid]"
6,22,"CCN(c1ncc(-c2cccs2)cc1CN1C(=O)O[C@H](c2cc(C(F)(F)F)cc(C(F)(F)F)c2)[C@@H]1C)C1CCCCC1 [Example 80, (4S,5R)-5-[3,5-bis(trifluoromethyl)phenyl]-4-methyl-3-({[2-(ethyl)(cyclohexyl)amino]-5-(thiophen-2-yl)pyridin-3-yl}methyl)-oxazolidin-2-one]"
7,19.3,"CCN(c1ncc(C(F)(F)F)cc1CN1C(=O)O[C@H](c2cc(C(F)(F)F)cc(C(F)(F)F)c2)[C@@H]1C)C1CCN(CC(=O)OC)CC1 [Example 38, methyl 2-(4-{[3-({(4S,5R)-5-[3,5-bis(trifluoromethyl)phenyl]-4-methyl-2-oxo-oxazolidin-3-yl}methyl)-5-(trifluoromethyl)pyridin-2-yl](ethyl)amino}piperidin-1-yl)acetate]"
8,18.9,"CCN(c1ncc(-c2cc(C)cs2)cc1CN1C(=O)O[C@H](c2cc(C(F)(F)F)cc(C(F)(F)F)c2)[C@@H]1C)C1CCCCC1 [Example 63, (4S,5R)-5-[3,5-bis(trifluoromethyl)phenyl]-4-methyl-3-({[2-(ethyl)(cyclohexyl)amino]-5-(3-methyl-thiophen-5-yl)pyridin-3-yl}methyl)-oxazolidin-2-one]"
9,13.4,"(4S,5R)-5-[3,5-bis(trifluoromethyl)phenyl]-4-methyl-3-({[2-(ethyl)(cyclohexyl)amino]-5-(1,3-dimethyl-1H-pyrazol-4-yl)pyridin-3-yl}methyl)-oxazolidin-2-one [Example 69]"
10,11.8,"CCC1CCCN1c1cnc(N(CC)C2CCCCC2)c(CN2C(=O)O[C@H](c3cc(C(F)(F)F)cc(C(F)(F)F)c3)[C@@H]2C)c1 (stereo partly drawn) [Example 90, (4S,5R)-5-[3,5-bis(trifluoromethyl)phenyl]-4-methyl-3-({[2-(ethyl)(cyclohexyl)amino]-5-(2-ethyl-pyrrolidin-1-yl)pyridin-3-yl}methyl)-oxazolidin-2-one]"
11,11.1,"CCN(c1ncc(OS(C)(=O)=O)cc1CN1C(=O)O[C@H](c2cc(C(F)(F)F)cc(C(F)(F)F)c2)[C@@H]1C)C1CCCCC1 [Example 55, 5-{[(4S,5R)-5-[3,5-bis(trifluoromethyl)phenyl]-4-methyl-2-oxo-oxazolidin-3-yl]methyl}-6-[(cyclohexyl)(ethyl)amino]-pyridin-3-yl methanesulfonate]"
12,2.4,"CCN(c1ncc(N2CCCC2)cc1CN1C(=O)O[C@H](c2cc(C(F)(F)F)cc(C(F)(F)F)c2)[C@@H]1C)C1CCOCC1 [Example 41, (4S,5R)-5-[3,5-bis(trifluoromethyl)phenyl]-4-methyl-3-({[2-(ethyl)(tetrahydro-2H-pyran-4-yl)amino]-5-(pyrrolidin-1-yl)pyridin-3-yl}methyl)-oxazolidin-2-one]"
13,0.65,CCN(C[C@H]1CC[C@H](CC(=O)O)CC1)c1ncc(-c2c(C)noc2C)nc1CN1C(=O)OC(c2cc(C(F)(F)F)cc(C(F)(F)F)c2)[C@@H]1C (some centres unmarked) [Example 102]
